{"source": "paper PMC12406685", "about": "“Thiazole substitution of a labile amide bond—a new option toward antiplasmodial pantothenamide-mimics” (Antimicrobial Agents and Chemotherapy, 2025)", "data": [{"target": "PfPanK (Plasmodium falciparum, UniProt Q8IL92+Q8ILP4)", "sequence (Q8ILP4 entry or part of it)": "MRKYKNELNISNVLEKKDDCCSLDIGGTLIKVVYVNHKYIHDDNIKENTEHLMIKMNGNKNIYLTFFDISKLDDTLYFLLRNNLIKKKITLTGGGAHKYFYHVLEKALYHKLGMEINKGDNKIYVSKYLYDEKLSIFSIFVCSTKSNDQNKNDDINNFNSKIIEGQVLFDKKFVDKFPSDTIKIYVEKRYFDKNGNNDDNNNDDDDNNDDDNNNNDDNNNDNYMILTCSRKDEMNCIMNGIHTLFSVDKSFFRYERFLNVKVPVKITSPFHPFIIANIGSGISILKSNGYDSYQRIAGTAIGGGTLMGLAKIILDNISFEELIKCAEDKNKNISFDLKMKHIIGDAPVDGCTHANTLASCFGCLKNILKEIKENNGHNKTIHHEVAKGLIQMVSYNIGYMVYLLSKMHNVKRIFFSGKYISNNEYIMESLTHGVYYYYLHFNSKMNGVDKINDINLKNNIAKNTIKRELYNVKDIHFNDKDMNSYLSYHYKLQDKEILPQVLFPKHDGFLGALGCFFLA", "sequence (Q8IL92 entry or part of it)": "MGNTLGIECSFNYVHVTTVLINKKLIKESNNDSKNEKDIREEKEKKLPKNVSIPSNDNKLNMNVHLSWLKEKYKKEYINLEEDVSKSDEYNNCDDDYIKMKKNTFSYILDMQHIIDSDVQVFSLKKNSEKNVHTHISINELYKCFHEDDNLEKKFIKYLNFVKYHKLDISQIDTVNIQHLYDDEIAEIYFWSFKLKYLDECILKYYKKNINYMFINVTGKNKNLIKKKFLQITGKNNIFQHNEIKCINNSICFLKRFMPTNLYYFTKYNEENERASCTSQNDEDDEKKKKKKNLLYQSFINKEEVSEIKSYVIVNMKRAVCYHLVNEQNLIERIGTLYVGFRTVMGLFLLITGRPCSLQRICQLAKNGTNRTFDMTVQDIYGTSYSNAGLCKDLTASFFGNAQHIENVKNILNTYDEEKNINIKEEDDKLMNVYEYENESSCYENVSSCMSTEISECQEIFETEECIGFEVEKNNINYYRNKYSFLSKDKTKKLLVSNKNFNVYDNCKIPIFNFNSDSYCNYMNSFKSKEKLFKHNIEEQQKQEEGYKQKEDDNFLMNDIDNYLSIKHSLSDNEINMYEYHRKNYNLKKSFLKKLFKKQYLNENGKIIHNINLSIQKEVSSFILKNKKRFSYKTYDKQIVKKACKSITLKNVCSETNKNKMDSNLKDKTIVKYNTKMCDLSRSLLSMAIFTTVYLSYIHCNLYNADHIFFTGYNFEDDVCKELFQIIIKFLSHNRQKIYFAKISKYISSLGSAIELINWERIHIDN", "assay": "[14C]pantothenate phosphorylation assay in P. falciparum lysates (Somogyi reagent)", "format": "biochemical", "conditions": "read-out: Inhibition of pantothenate phosphorylation", "procedure": "(§1) Parasite lysates were prepared from saponin-isolated mature trophozoite-stage parasites as described by Saliba et al. ([14]), with modifications. Briefly, a culture with predominantly trophozoite stage parasites was thoroughly mixed with saponin (0.05% [wt/vol] final concentration) and centrifuged at 2,000 × g for 8 min at 4°C. The pelleted parasites were then transferred to a 1.5 mL tube and washed three times (16,000 × g, 1 min each time) with cold malaria saline (125 mM NaCl, 5 mM KCl, 25 mM HEPES, 20 mM glucose, 1 mM MgCl2, pH 7.1). Subsequently, washed saponin-isolated parasites were suspended in 1 mL of 10 mM Tris/Cl, pH 7.4, followed by trituration (10 times) through a SafetyGlide injection needle (25-gauge). The lysates were then centrifuged at 16,000 × g for 30 min at 4°C, and the supernatant was transferred to a new tube. The concentration of the lysates was then determined using the Bradford reagent.\n(§2) Phosphorylation of [^14C]pantothenate was determined using a combination of zinc sulphate (ZnSO4) and barium hydroxide (Ba(OH)2) (Somogyi reagent) as previously described ([78]). In the 125 min time course, each reaction (650 µL) contained a final concentration of 50 mM Tris-Cl (pH 7.4), 5 mM ATP, 5 mM MgCl2, 2 µM (0.1 µCi/mL) [^14C]pantothenate, and 60 µg of total parasite lysate. The compounds were added at their 10× antiplasmodial IC50 values or at various concentrations to generate dose–response curves. Mixtures were incubated at 37°C throughout the experiment, and reactions were initiated by the addition of the lysates. A reaction with identical components to the test reactions but lacking the parasite lysate was prepared to serve as a no-phosphorylation negative control, and a reaction with DMSO vehicle control (0.2% vol/vol) served as a positive control. At pre-determined time points, 50 µL of the reaction mixture was transferred in triplicate to wells of a 96-well filter plate with 0.2 µm hydrophilic polyvinylidene fluoride (PVDF) membrane filter (Corning), which had been pre-loaded with 50 µL of 150 mM Ba(OH)2. The reaction mixtures were thoroughly mixed with the Ba(OH)2 in the wells to precipitate the enzyme and terminate the phosphorylation reaction. After all reactions had been terminated, phosphorylated compounds in each well were precipitated by the addition of 50 µL of 150 mM ZnSO4 to generate the Somogyi reagent. The plate was then washed twice with deionized H2O and once with 95% (vol/vol) ethanol using a vacuum manifold to remove the non-phosphorylated [^14C]pantothenate and was subsequently dried overnight at 37°C in a non-humidified incubator. The following day, 30 µL of Microscint-O (PerkinElmer) was added to each well, and the plate was sealed on the top and bottom with TopSeal-A Plus sealing film (PerkinElmer). A Packard Microplate Scintillation and Luminescence Counter was used to measure the radioactivity in each well immediately after the plate had been sealed. To determine the total radioactivity in each phosphorylation assay, 50 µL of each reaction mixture was added to the wells of an OptiPlate-96 microplate (PerkinElmer) in triplicate and was then thoroughly mixed with 150 µL of Microscint-40 (PerkinElmer), and the radioactivity was measured in the same manner. Phosphorylation of [^14C]pantothenate, calculated as a percentage of the radioactivity measured in the test wells relative to the total radioactivity in the phosphorylation assay, was then plotted against the reaction time. Each data set was analyzed by linear regression, from which the phosphorylation rate of each reaction was then determined and expressed as a percentage of the phosphorylation rate of the DMSO-positive control reaction.", "units": {"inhibition at 2 µM": "%"}, "values": [{"smiles": "CC(C)(CO)[C@@H](O)C(=O)NCc1nc(CCc2ccccc2)cs1", "note": "[Compound 1e]", "inhibition at 2 µM": "> 90"}, {"smiles": "CC(C)(CO)[C@@H](O)C(=O)NCc1csc(-c2ccccc2)n1", "note": "[Compound 2e]", "inhibition at 2 µM": "~80"}, {"smiles": "CCCCCc1csc(CNC(=O)[C@H](O)C(C)(C)CO)n1", "note": "[Compound 1c]", "inhibition at 2 µM": "> 90"}, {"smiles": "CC(C)(CO)[C@@H](O)C(=O)NCc1csc(Cc2ccccc2)n1", "note": "[Compound 2c]", "inhibition at 2 µM": "> 90"}, {"smiles": "CCCCc1csc(CNC(=O)[C@H](O)C(C)(C)CO)n1", "note": "[Compound 1a]", "inhibition at 2 µM": "> 90"}, {"smiles": "CC(C)(CO)[C@@H](O)C(=O)NCc1cnc(-c2ccccc2)s1", "note": "[Compound 3f]", "inhibition at 2 µM": "> 90"}]}, {"target": "PfPanK (Plasmodium falciparum, UniProt Q8IL92+Q8ILP4)", "assay": "[14C]pantothenate phosphorylation assay in P. falciparum lysates (Somogyi reagent)", "format": "biochemical", "conditions": "relative to reported Km 270 ± 95 nM", "procedure": "as §1, §2", "values": [{"smiles": "CC(C)(CO)[C@@H](O)C(=O)NCc1csc(-c2ccccc2)n1", "note": "[Compound 2e]", "Fold by which IC50 at inhibiting pantothenate phosphorylation is higher than Km for pantothenate of PfPanK": "approximately 2.1 fold"}]}]}
